Literature values in patent US20240141060A1, “DOSAGE REGIMES FOR ANTI-CD73 AND ANTI-ENTPD2 ANTIBODIES AND USES THEREOF” (NOVARTIS AG, priority 2021, published 2024).

Conditions: patients; cited from earlier work

Nc1nc(-n2cccn2)nc(-n2cccn2)c1Br [NIR178, 5-bromo-2,6-di-(1H-pyrazol-1-yl)pyrimidine-4-amine, reference compound]
MTD: 480 mg BID
